According to patent US8742078B2, “Antibacterial 4,6-substituted 6′, 6″ and 1 modified aminoglycoside analogs” (Isis Pharmaceuticals, Inc., priority 2008, dated 2014):

Assays:
[1] = test system: P. aeruginosa 29248; test: MIC assay, P. aeruginosa 29248; type: cell-based; design: unit not given here; settings: range: complete growth inhibition at higher, viable cells at lower concentration; 20-24 hours at 37° C.
Method: (§1) The MIC assays are carried out in 150 μL volume in duplicate in 96-well clear flat-bottom plates. The bacterial suspension from an overnight culture growth in appropriate medium is added to a solution of test compound in 2.5% DMSO in water. Final bacterial inoculum is approximately 10^2-10^3 CFU/well. The percentage growth of the bacteria in test wells relative to that observed for control wells containing no compound is determined by measuring absorbance at 595 nm (A595) after 20-24 hours at 37° C. The MIC is determined as a range of concentration where complete inhibition of growth is observed at the higher concentration and bacterial cells are viable at the lower concentration. Both ampicillin and tetracycline are used as antibiotic positive controls in each screening assay. Both ampicillin and tetracycline are used as antibiotic-positive controls in each screening assay for S. pyogenes, E. coli imp-, E. coli, S. aureus, E. faecalis, K. pneumoniae and P. vulgaris. Ciprofloxacin is used as an antibiotic positive control in each screening assay for P. aeruginosa.

[2] = test system: P. aeruginosa 27853; test: MIC assay, P. aeruginosa 27853; type: cell-based; design: unit not given here; settings: range: complete growth inhibition at higher, viable cells at lower concentration; 20-24 hours at 37° C.
Method: as §1

| Compound | MIC P aeruginosa 29248 [1] | MIC P aeruginosa 27853 [2] |
| --- | --- | --- |
| NCC[C@H](O)C(=O)NC1CC(N)C(OC2OC(CN)C(O)C(O)C2O)C(O)C1OC1OC(CNC2CCCCC2)C(O)C(N)C1O (stereo partly shown) [IBIS00561976, 6″-deoxy-6″-cyclohexylamino-N-1-(4-amino-2-S-hydroxybutyryl)kanamycin A] | 5-10 | >40 |
| CN(C)CC1OC(OC2C(N)CC(NC(=O)[C@@H](O)CCN)C(OC3OC(CO)C(O)C(N)C3O)C2O)C(O)C(O)C1O (stereo partly shown) [IBIS00561961, 6′-N,N-Dimethyl-N-1-(4-amino-2-S-hydroxybutyryl)kanamycin A] | >40 | 10-20 |
| CN(C)CCNCC1OC(OC2C(NC(=O)C(O)CCN)CC(N)C(OC3OC(CN)C(O)C(O)C3O)C2O)C(O)C(N)C1O (stereo not shown) [IBIS00561983, 6″-deoxy-6″-dimethylaminoethylamino-N-1-(4-amino-2-S-hydroxybutyryl)kanamycin A] | 1.25-2.5 | 1.25-2.5 |
| NCC[C@H](O)C(=O)N[C@@H]1C[C@H](N)[C@@H](O[C@H]2O[C@H](CNCCc3ccccc3)[C@@H](O)[C@H](O)[C@H]2O)[C@H](O)[C@H]1O[C@H]1O[C@H](CO)[C@@H](O)[C@H](N)[C@H]1O [IBIS00561960, 6′-N-Phenethylamino-N-1-(4-amino-2-S-hydroxybutyryl)kanamycin A] | 5-10 | 2.5-5.0 |
| NCC[C@H](O)C(=O)N[C@@H]1C[C@H](N)[C@@H](O[C@H]2O[C@H](CN)[C@@H](O)[C@H](O)[C@H]2O)[C@H](O)[C@H]1O[C@H]1O[C@H](CNCCNCc2ccccc2)[C@@H](O)[C@H](N)[C@H]1O [IBIS00561984, 6″-deoxy-6″-benzylaminoethylamino-N-1-(4-amino-2-S-hydroxybutyryl)kanamycin A] | 5.0-10.0 | 5.0-10.0 |
| NCC[C@H](O)C(=O)N[C@@H]1C[C@H](N)[C@@H](O[C@H]2O[C@H](CN)[C@@H](O)[C@H](O)[C@H]2O)[C@H](O)[C@H]1O[C@H]1O[C@H](CO)[C@@H](O)[C@H](N)[C@H]1O [IBIS00404962, Amikacin, reference compound] | <0.625 | 1.25-2.5 |
| 6″-deoxy-6″-phenethylamino-N-1-(4-amino-2-S-hydroxybutyryl)kanamycin A [IBIS00561977] | 5-10 | 10-20 |
| NCC[C@H](O)C(=O)N[C@@H]1C[C@H](N)[C@@H](O[C@H]2O[C@H](CNCCCc3ccccc3)[C@@H](O)[C@H](O)[C@H]2O)[C@H](O)[C@H]1O[C@H]1O[C@H](CO)[C@@H](O)[C@H](N)[C@H]1O [IBIS00561962, 6′-N-Phenpropylamino-N-1-(4-amino-2-S-hydroxybutyryl)kanamycin A] | 2.5-5.0 | 2.5-5.0 |
| [N-]=[N+]=NC[C@H]1O[C@H](O[C@@H]2[C@@H](O)[C@H](O[C@H]3O[C@H](CN)[C@@H](O)[C@H](O)[C@H]3O)[C@@H](N)C[C@H]2NC(=O)[C@@H](O)CCN)[C@H](O)[C@@H](N)[C@@H]1O [IBIS00561980, 6″-deoxy-6″-azido-N-1-(4-amino-2-S-hydroxybutyryl)kanamycin A] | 0.625-1.25 | 2.5-5.0 |
| CC(C)CNCC1OC(OC2C(N)CC(NC(=O)[C@@H](O)CCN)C(OC3OC(CO)C(O)C(N)C3O)C2O)C(O)C(O)C1O (stereo partly shown) [IBIS00561963, 6′-N-Isobutyl-N-1-(4-amino-2-S-hydroxybutyryl)kanamycin A] | >40 | 10-20 |
| NC[C@H]1O[C@H](O[C@H]2[C@H](O)[C@@H](O[C@H]3O[C@H](CO)[C@@H](O)[C@H](N)[C@H]3O)[C@H](N)C[C@@H]2N)[C@H](O)[C@@H](O)[C@@H]1O [IBIS00262400, Kanamycin A, reference compound] | 2.5-5 | 1.25-2.5 |
| CC(C)NC[C@H]1O[C@H](O[C@@H]2[C@@H](O)[C@H](O[C@H]3O[C@H](CN)[C@@H](O)[C@H](O)[C@H]3O)[C@@H](N)C[C@H]2NC(=O)[C@@H](O)CCN)[C@H](O)[C@@H](N)[C@@H]1O [IBIS00561975, 6″-deoxy-6″-isopropylamino-N-1-(4-amino-2-S-hydroxybutyryl)kanamycin A] | 10-20 | 10-20 |
| CNC[C@H]1O[C@H](O[C@@H]2[C@@H](O)[C@H](O[C@H]3O[C@H](CN)[C@@H](O)[C@H](O)[C@H]3O)[C@@H](N)C[C@H]2NC(=O)[C@@H](O)CCN)[C@H](O)[C@@H](N)[C@@H]1O [IBIS00561974, 6″-deoxy-6″-methylamino-N-1-(4-amino-2-S-hydroxybutyryl)kanamycin A] | 0.625-1.25 | 2.5-5.0 |
| CCCNC[C@H]1O[C@H](O[C@@H]2[C@@H](O)[C@H](O[C@H]3O[C@H](CN)[C@@H](O)[C@H](O)[C@H]3O)[C@@H](N)C[C@H]2NC(=O)[C@@H](O)CCN)[C@H](O)[C@@H](N)[C@@H]1O [IBIS00561982, 6″-deoxy-6″-propylamino-N-1-(4-amino-2-S-hydroxybutyryl)kanamycin A] | 2.5-5.0 | 5.0-10.0 |
